Results from paper PMC5037475, “The Dinoflagellate Toxin 20-Methyl Spirolide-G Potently Blocks Skeletal Muscle and Neuronal Nicotinic Acetylcholine Receptors” (Toxins, 2016).
“Also recorded” adds a separate entry of the source. Where two headings read alike, the source gives them in different places.

What was measured:
[1] = test system: mouse neuromuscular system; settings: local injection, mice; cited from earlier work
[2] = target: Torpedo muscle-type α1_2β1γδ nAChR; settings: previously reported; cited from earlier work
[3] = test system: isolated mouse extensor digitorum longus (EDL) neuromuscular preparations, endowed with the α1_2βδε nAChR; experiment: Nerve-evoked isometric twitch tension on isolated mouse EDL nerve-muscle preparations
Procedure: The onset of the contraction block was rapid at high 20-meSPX-G concentration, with a complete block of the twitch response within 60 min at concentrations above 10 nM.
Figure 2 (A) Nerve-evoked isometric twitch responses on isolated mouse extensor digitorum longus (EDL) before and after the action of 10 nM 20-meSPX-G; and (B) concentration-response curve for the action of 20-meSPX-G on nerve-evoked isometric twitch response. Data points represent the normalized twitch response, relative to the respective controls. Each point is the mean ± SEM of 4 nerve muscle preparations at 60 min toxin exposure.
Isometric twitch tension measurements were performed on isolated mouse EDL nerve-muscle preparations after rapid removal from euthanized animals. The isolated EDL nerve-muscle preparation was mounted in a silicone-lined bath perfused with a Krebs-Ringer solution of the following composition (in mM): NaCl 140, KCl 5, CaCl2 2, MgCl2 1, glucose 11, and HEPES 5 (pH 7.4), continuously perfused with pure O2 throughout the experiment. For muscle tension measurements, one of the muscle tendons was securely anchored onto the silicone-coated bath. The other tendon was attached to an isometric force displacement transducer (FT03, Grass Instruments, West Warwick, RI, USA) via an adjustable stainless-steel hook. Muscle twitches were induced either by motor nerve stimulation, or by direct electrical muscle stimulation with supramaximal 0.15 ms duration current pulses delivered by a stimulator (S-44 Grass Instruments), through an electrode assembly placed along the muscle length. The resting tension was monitored and kept constant for each tested preparation through a mobile micrometer stage. Signals from the force transducer were collected, and digitized with a Digidata-1322A A/D interface board (Axon Instruments, Union City, CA, USA), as previously reported.

[4] = acyclic aminoketone spirolides; cited from earlier work
[5] = target: Torpedo muscle-type α1_(2)β1γδ nicotinic acetylcholine receptor (Torpedo marmorata (endogenous in electric organ)) (UniProt P02711); experiment: radioligand binding
[6] = test system: mouse neuromuscular system; experiment: In vivo compound muscle action potential (CMAP) recording after local i.m. injection in anesthetized mice
From the text: Figure 3 Effects of i.m. local injections of 20-meSPX-G in vivo on the mouse neuromuscular system. (A) Compound muscle action potentials (CMAPs) recorded from the tail muscle in response to caudal motor nerve stimulation (increasing intensities, scheme), before and at various times after injection of the cyclic imine toxin (35 pg/mouse); (B) time-course of the effects of 20-meSPX-G injections (1.75, 35 and 350.5 pg/mouse) on the CMAP maximal amplitude. Arrows indicate the time of injections; and (C) dose-response curve of the effects of 20-meSPX-G injections on the maximal CMAP amplitude. Each value represents the mean ± SEM of data obtained from 4–6 mice, and is expressed relatively to that obtained before injections. The sigmoid curve was obtained by nonlinear regression analysis through data points (R^2 ≥ 0.99). The 20-meSPX-G dose required to block 50% of the maximal CMAP amplitude (dashed lines) was 47 pg/mouse.
In vivo recordings from the neuromuscular system were done in mice anesthetized by isoflurane inhalation, with a minimally-invasive electrophysiological method using Qtrac software (Institute of Neurology, Queen Square, London, UK, 2013), as previously described. In brief, electrical stimulations were delivered at a constant frequency of 1.25 Hz to the caudal motor nerve (at the base of the tail) with surface electrodes, and the compound muscle action potential (CMAP) was recorded using needle-electrodes inserted into the tail muscle. 20-me-SPX-G, diluted in phosphate buffer saline containing <1% methanol, was injected intramuscularly (i.m.), between stimulation and ground electrodes, in a single bolus of 1.25−5 µL with a micro-syringe (10 μL volume). Continuous on-line recordings were started around six minutes before injections to determine the toxin and/or solvent effects, as a function of time, on selected excitability parameters, such as the CMAP amplitude and excitability threshold.

[7] = test system: Torpedo muscle-type α1_2β1γδ nAChR; experiment: Voltage-clamp recording of ACh-evoked currents in Xenopus oocytes microtransplanted with Torpedo nAChR; type: cell-based, Torpedo marmorata
Procedure: The fact that the amplitude of the ACh-evoked current was usually ≥1 µA (n = 6) was indicative of a good incorporation of the Torpedo muscle-type receptor into the oocyte membrane.
Torpedo marmorata fish were anaesthetized with 0.03% tricaine (Sigma-Aldrich, Saint Quentin Fallavier, France) in seawater, before surgical removal of electric organs. From sliced Torpedo electric organs, purified membranes enriched in the α1_2β1γδ nAChR were prepared at 4 °C in 5 mM glycine, using procedures described previously. Aliquots of the purified membranes were stored at –80 °C until use. Microtransplantation of Torpedo nAChR [39] consisted in a single microinjection of a membrane suspension (50 nL at 3.5 mg·mL^−1 protein) into the oocyte cytoplasm using a Nanoliter 2000 Micro4 Controller mounted on a microscope (World Precision Instruments, Inc., Hertfordshire, UK), as previously described.
Currents evoked by ACh were recorded with a two-microelectrode voltage-clamp amplifier (OC-725B, Warner Instrument Corp., Hamden, CT, USA) at −60 mV holding potential. Micro-electrodes had 0.5–1.5 MΩ tip resistances. A pCLAMP-9/Digidata-1322A system (Molecular Devices, Union City, CA, USA) was used for data recording. […]

human α7 nAChR = target: T1, human α7 nAChR (Homo sapiens, UniProt P36544); experiment: Voltage-clamp recording of ACh-evoked currents in Xenopus oocytes expressing human α7 nAChR; type: cell-based; settings: ACh 350 μM (EC50), 3 s, −60 mV; read-out: IC50, inhibition of ACh-evoked current
T1 construct: expressed in transfected cells; host or cells: Xenopus laevis oocytes
Procedure: Functional analysis of the action of 20-meSPX-G was also performed using voltage-clamp recordings in Xenopus oocytes previously transfected with human α7 or α4β2-encoding cDNAs.
Oocytes were obtained under anesthesia (ethyl-3-amino benzoate methanesulfonate salt solution (1 g·L^−1, Sigma-Aldrich, Saint Quentin Fallavier, France) from mature female Xenopus laevis frogs. Oocytes were recovered and placed in a medium containing no added calcium and containing (in mM): NaCl, 88; KCl, 2.5; MgCl2, 1; and HEPES, 5 (pH 7.6). After extensive washing with this solution, oocytes were transferred to a Barth’s solution containing (in mM): NaCl, 88; KCl, 1; MgSO4, 0.33; CaCl2, 0.41; MgSO4, 0.82; Ca(NO3)2, 0.33; NaHCO3, 2.4; and HEPES, 10 (pH = 7.2) supplemented with kanamycine 0.1 mg·mL^−1. Oocytes (stage V–VI) were defolliculated (manually) and microinjected with 50 nL of human α7 mRNA (0.1 μg·μL^−1), or with a 50 nL mixture of plasmids carrying the cDNA of α4 and β2 (0.3 μg·μL^−1, each). For micro-injection a Nanoliter 2000 Micro4 Controller (World Precision Instruments, Inc., Hertfordshire, UK) was used. […]
Currents evoked by ACh were recorded with a two-microelectrode voltage-clamp amplifier (OC-725B, Warner Instrument Corp., Hamden, CT, USA) at −60 mV holding potential. […]

human α4β2 nAChR [8] = target: T2, human α4β2 nAChR (Homo sapiens, UniProt P17787+P43681); experiment: Voltage-clamp recording of ACh-evoked currents in Xenopus oocytes expressing human α4β2 nAChR; type: cell-based; settings: ACh 150 μM (EC50), −60 mV; read-out: IC50, inhibition of ACh-evoked current
From the text: Oocytes were obtained under anesthesia (ethyl-3-amino benzoate methanesulfonate salt solution (1 g·L^−1, Sigma-Aldrich, Saint Quentin Fallavier, France) from mature female Xenopus laevis frogs. Oocytes were recovered and placed in a medium containing no added calcium and containing (in mM): NaCl, 88; KCl, 2.5; MgCl2, 1; and HEPES, 5 (pH 7.6). After extensive washing with this solution, oocytes were transferred to a Barth’s solution containing (in mM): NaCl, 88; KCl, 1; MgSO4, 0.33; CaCl2, 0.41; MgSO4, 0.82; Ca(NO3)2, 0.33; NaHCO3, 2.4; and HEPES, 10 (pH = 7.2) supplemented with kanamycine 0.1 mg·mL^−1. Oocytes (stage V–VI) were defolliculated (manually) and microinjected with 50 nL of human α7 mRNA (0.1 μg·μL^−1), or with a 50 nL mixture of plasmids carrying the cDNA of α4 and β2 (0.3 μg·μL^−1, each). For micro-injection a Nanoliter 2000 Micro4 Controller (World Precision Instruments, Inc., Hertfordshire, UK) was used. Oocytes that were microinjected were incubated at 18 °C in Barth’s solution, and electrophysiological recordings were performed 3−4 days after microinjection.
Currents evoked by ACh were recorded with a two-microelectrode voltage-clamp amplifier (OC-725B, Warner Instrument Corp., Hamden, CT, USA) at −60 mV holding potential. Micro-electrodes had 0.5–1.5 MΩ tip resistances. […]

[9] = target: Torpedo muscle-type α1_2β1γδ nAChR; experiment: Competition binding with [125I]α-BTX on Torpedo membranes; set-up: species or system Torpedo marmorata; settings: for Ki: [125I]α-BTX, equilibrium 4 h, mean ± SEM
[10] = target: T3, chick chimeric α7-5HT3 nAChR (UniProt P22770+P23979, M226I/T225I); experiment: Competition binding with [125I]α-BTX on HEK-293 cells expressing chimeric α7-5HT3 nAChR
T3 construct: expressed in transfected cells; host or cells: HEK-293

human α3β2 nAChR = target: T4, human α3β2 nAChR (Homo sapiens, UniProt P17787+P32297); experiment: Competition binding with [3H]epibatidine on HEK-293 cells expressing human α3β2 nAChR; settings: 4 h, mean ± SEM
T4 construct: expressed in transfected cells; host or cells: HEK-293

mouse = settings: cited from earlier work; for LD50: mouse
human α4β2 nAChR [11] = target: T2, human α4β2 nAChR; experiment: Competition binding with [3H]epibatidine on HEK-293 cells expressing human α4β2 nAChR; set-up: expressed in transfected cells; host or cells: HEK-293
[12] = i.m. injection, anesthetized mice, corresponding to 47 pg/mouse

C=C1CCCC2=NC[C@H](C)[C@@H](C)C[C@@]23CCC([C@@H]2C=C(C)C(=O)O2)=C(C)[C@@H]3/C=C(\C)[C@@H](O)C[C@@H]2CC[C@@]3(CC[C@@]4(O[C@@H](CC[C@@]4(C)O)C1)O3)O2 [13-desmethyl spirolide C]
IC50, reduction of CMAP amplitude in vivo [1]: 6 ng/kg
Ki [2]: 0.08 nM

C=C1CCCC2=NC[C@H](C)[C@@H](C)C[C@@]23CCC(C(=O)O)=C[C@@H]3[C@@H]2O[C@]3(C[C@H]4CCC[C@@]5(CC[C@@]6(O[C@@H](CC[C@@]6(C)O)C1)O5)O4)C[C@@H](C)[C@@H](O)[C@H]2O3 [pinnatoxin A]
Ki [2]: 2.8 nM

COc1cc2c3cc1Oc1cc(ccc1O)C[C@@H]1c4c(cc(OC)c(O)c4Oc4ccc(cc4)C[C@@H]3N(C)CC2)CC[N+]1(C)C [d-tubocurarine, reference compound]
fold higher concentration needed for a similar degree of neuromuscular blockade (IC50) compared with 20-meSPX-G ([3]; comparison with literature value): 75 fold

C=C(CCCC(=O)C1(CCC(C)CN)CCC(C2C=C(C)C(=O)O2)=C(C)C1/C=C(\C)C(O)CC)CC1CCC(C)(O)C2(CCC3(CC(C)CO3)O2)O1 (stereo not drawn) [spirolide E]
toxicity [4]: no toxicity

α-toxin from Naja nigricollis (from UniProt P01426 1-61) (natural protein)
Ki [5]: 0.011 nM

20-methyl spirolide G [20-meSPX-G]
reversal of neuromuscular transmission block by wash-out ([3]; continuous wash-out for 30 min with spirolide-free medium): not completely reversed
IC50 ([3]; isolated mouse EDL, 60 min toxin exposure, read-out: IC50, block of nerve-evoked muscle contractions): 4.8 nM
concentration giving complete block of the twitch response within 60 min ([3]; nerve-evoked isometric twitch, isolated mouse EDL): above 10 nM
effect on contractions elicited by direct electrical muscle stimulation ([3]; when nerve-evoked twitch was blocked (10 nM)): lack of a direct effect; also recorded: no action
onset of the effect on CMAP amplitude ([6]; 1.75 pg/mouse i.m.): 15.8 ± 1.9 min
block of CMAP amplitude ([6]; 1.75 pg/mouse i.m., mean): 9%
block of CMAP amplitude ([6]; 350.5 pg/mouse i.m.): 91%
onset of the effect on CMAP amplitude ([6]; 350.5 pg/mouse i.m.): 7.7 ± 2.1 min
CMAP maximal amplitude after spontaneous recovery, relative to controls ([6]; 35–87.6 pg/mouse i.m.): 78.5%
time for CMAP maximal amplitude to return to 78.5% of controls ([6]; 35–87.6 pg/mouse i.m.): ≤ 53.3 ± 19.6 min
ED50, dose required to block 50% of the maximal CMAP amplitude ([6]; i.m. injection, anesthetized mice): 47 pg/mouse
ED50 (also called IC50), block of maximal CMAP amplitude [6, 12]: 0.0017 µg/kg
ED50, block of maximal CMAP amplitude [6, 12]: 2.4 pmol/kg
agonist action ([7]; 3.1 nM toxin applied alone, −60 mV): no agonist action
IC50 ([7]; ACh 25 µM (EC50), −60 mV holding potential, read-out: IC50, inhibition of ACh-evoked current): 0.36 nM
IC50 (human α7 nAChR): 0.48 nM
IC50 (human α4β2 nAChR [8]): 2.1 nM
Ki [9]: 0.028 ± 0.005 nM
fold lower affinity than α-toxin from Naja nigricollis ([9]; from Ki values of Table 1): about 2.5 fold
Ki ([10]; [125I]α-BTX, HEK-293 cells, mean ± SEM): 0.11 ± 0.08 nM
times more active than MLA ([10]; α7 / chimeric α7-5HT3, from Ki values): about 7.5 times
Ki (human α3β2 nAChR): 0.04 ± 0.001 nM
lethality (mouse; mice, i.p. administration of 0.063 mg·kg^−1): absence of lethality
LD50 (mouse; by feeding): 630 µg/kg
LD50 (mouse; intraperitoneal (i.p.) injection): 8 µg/kg
LD50 (mouse; orally by gavage): 160 µg/kg
fold lower affinity in human α4β2 than in human α3β2 nAChR (human α4β2 nAChR [11]; [3H]epibatidine competition binding): 90 fold
Ki (human α4β2 nAChR [11]; [3H]epibatidine, HEK-293 cells, 4 h, mean ± SEM): 3.6 ± 0.07 nM

spirolide F
toxicity [4]: no toxicity

B1: α-Toxin (snake): α-toxin from Naja nigricollis, a short-chain curaremimetic toxin (61 residues and four disulfides), synthesized (protein)
chain: LECHNQQSSQPPTTKTCPGETNCYKKVWRDHRGTIIERGCGCPTVKPGIKLNCCTTDKCNN
modifications: disulfide (positions not given here)
notes: α-toxin from Naja nigricollis, a short-chain curaremimetic toxin (61 residues and four disulfides), synthesized
Ki [9]: 0.011 ± 0.002 nM
